ChEMBL document CHEMBL4673229, “Pancreatic Lipase Inhibitory Cyclohexapeptides from the Marine Sponge-Derived Fungus Aspergillus sp. 151304” (J Nat Prod, 2020)
Positions of bridges follow the written chain, without caps; N, C: chain ends. Non-standard residues stand in square brackets, D forms with d. Residues, ends and D or L forms follow the SMILES beside them. *: point of attachment. NMeY = CN[C@@H](Cc1ccc(O)cc1)C(=O)O; Propionyl = CCC(=O)*

What was measured:
[1] = tested on: HepG2; experiment: Cytotoxicity against human HepG2 cells assessed as reduction in cell viability incubated for 72 hrs by CCK8 assay; assay type: cell-based; conditions: HepG2, 72 h
[2] = tested on: PC-9; experiment: Cytotoxicity against human PC-9 cells assessed as reduction in cell viability incubated for 72 hrs by CCK8 assay; assay type: cell-based; conditions: PC-9, 72 h
[3] = Non-competitive inhibition of porcine pancrease lipase type 2 assessed as decrease in 4-MU formation using 4-MUO as substrate preincubated for 3 mins followed by substrate addition and measured for 40 mins by Lineweaver-Burk plot analysis; parameters: species or system Sus scrofa domesticus, Pancreas
[4] = tested on: MCF7; experiment: Cytotoxicity against human MCF7 cells assessed as reduction in cell viability incubated for 72 hrs by CCK8 assay; assay type: cell-based; conditions: MCF7, 72 h
[5] = Inhibition of porcine pancrease lipase type 2 assessed as decrease in 4-MU formation using 4-MUO as substrate preincubated for 3 mins followed by substrate addition and measured for 40 mins by fluorescence assay; parameters: species or system Sus scrofa domesticus, Pancreas
[6] = tested on: HeLa; experiment: Cytotoxicity against human HeLa cells assessed as reduction in cell viability incubated for 72 hrs by CCK8 assay; assay type: cell-based

SMILES | IC50 [1] [µM] | IC50 [2] [µM] | Ki [3] [µM] | IC50 [4] [µM] | IC50 [5] [µM] | IC50 [6] [µM]
CC(=O)N[C@@H]1C(=O)N[C@@H](C(C)C)C(=O)N2CCC[C@H]2C(=O)N[C@H](C(C)C)C(=O)N[C@@H](Cc2ccc(O)cc2)C(=O)N[C@@H](Cc2ccc(O)cc2)C(=O)O[C@@H]1C | > 20 | > 20 | 2 | > 20 | 0.5 | > 20
CC(=O)N[C@@H]1C(=O)N[C@@H](C(C)C)C(=O)N2CCC[C@H]2C(=O)N[C@@H](C(C)C)C(=O)N(C)[C@@H](Cc2ccc(O)cc2)C(=O)N[C@@H](Cc2ccc(O)cc2)C(=O)O[C@@H]1C (Ac-TVPV[NMeY]Y; ester 1-C) | > 20 | > 20 | – | > 20 | 7.6 | > 20
CCC(=O)N[C@@H]1C(=O)N[C@@H](C(C)C)C(=O)N2CCC[C@H]2C(=O)N[C@@H](C(C)C)C(=O)N(C)[C@@H](Cc2ccc(O)cc2)C(=O)N[C@@H](Cc2ccc(O)cc2)C(=O)O[C@@H]1C (Propionyl-TVPV[NMeY]Y; ester 1-C) | > 20 | > 20 | – | > 20 | 1.8 | > 20
